Assay results: EP0768085A1, “ANTIBACTERIAL AGENT” (DAIICHI PHARMACEUTICAL CO., LTD., priority 1994, dated 1996)
In brackets after ≈: the same amount, converted by molar mass.

Assays:
Type in all cases: cell-based
[1] = system: Pasteurella from fish; experiment: Antibacterial activity (IC), agar as in Example 8, media with 1.5% NaCl, 25°C (Example 20, Tables 53-55)
In short: (§1)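 Growth inhibition was scored by turbidity after culture at 25°C, with IC bands set from 2-fold-dilution MIC-equivalents. Samples were tested at final 100, 10 and 1 µg/ml in Mueller-Hinton agar with 1.5% NaCl, seeded with 10^6 CFU/ml of the fish isolates.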

[2] = system: Enterococcus from fish; experiment: as above
In short: as §1

[3] = system: methicillin-resistant Staphylococcus aureus (MRSA) isolated from humans; experiment: Antibacterial activity (IC), Mueller-Hinton agar containing the sample (Example 8, Table 43); details: for IC: 18 hours; for MIC: Staphylococcus aureus, MRSA, 18 h
Experimental: (§2) The antibacterial action was evaluated by the inhibitory concentration (hereinafter abbreviated as IC) at which propagation of the bacteria cultured at 37°C for 18 hours was inhibited. Inhibition was determined by the turbidity of the medium. The expressions "IC≤100", "≤10", and "≤1" indicate that MIC-equivalent values obtained at the succesive […] dilution of the sample are 100-10 µg/ml, 10-1 µg/ml, and not more than 1 µg/ml, respectively. […] (In the subsequent Examples, the same rule applies correspondingly.) Table 39
(§3) A suitable amount of a sample was dissolved in dimethylsulfoxide (DMSO), after which the resulting solution was diluted with the same amount of sterilized distilled water to prepare a bulk sample of 1,000 µg/ml. Separately, a bacterial liquid for the test (methicillin-resistant Staphylococcus aureus (MRSA) isolated from humans) which had been cultured in Mueller-Hinton broth (product of DIFCO) was prepared and inoculated to a Mueller-Hinton agar (product of DIFCO) containing the sample so that the final inoculation amount of 10^6 CFU/ml was achieved. The final concentrations of the samples were 100, 10, and 1 µg/ml.
(§4) After culturing at 37°C for 18 hours, the antibacterial activity was evaluated in terms of IC in a manner similar to that described in Example 4.

[4] = system: Bordetella bronchiseptica (SM2-4); experiment: Antibacterial activity (IC), broth microplate as in Example 4 (Example 7, Table 42); details: for MIC: 18 h
Experimental: (§5) A suitable amount of a sample was dissolved in dimethylsulfoxide (DMSO), and the resultant solution was diluted with the same amount of sterilized distilled water to prepare a bulk sample of 1,000 µg/ml. Mueller-Hinton broth (product of DIFCO) was dispensed into each well of 96-well microplate. Thereafter, the bulk specimen was added to the first well of a row, and successively diluted (10-fold each time) with sterilized distilled water. Separately, a bacterial cell suspension for the test (Staphylococcus aureus 209-P) which had been cultured in the above-mentioned broth overnight at 37°C was inoculated to each well so that the final inoculation amount of 10^6 CFU/ml was attained. The final concentrations of the samples were 100, 10, and 1 µg/ml.
as §2
In a manner similar to that described in Example 4, antibacterial activity of the invention compound was determined. The bacterium used for the test was Bordetella bronchiseptica (SM2-4).

[5] = system: Staphylococcus aureus TI-1; experiment: Antibacterial activity (IC), broth microplate as in Example 4 (Example 5, Table 40); details: for MIC: TI1, 18 h
Experimental: as §5, §2
In a manner similar to that described in Example 4, antibacterial activity of the invention compound was determined. The bacterium used for the test was Staphylococcus aureus TI-1.

[6] = system: Pasteurella multocida (Kobe-6); experiment: Antibacterial activity (IC), broth microplate as in Example 4 (Example 6, Table 41); details: origin pig; for MIC: 18 h
Experimental: as §5, §2
In a manner similar to that described in Example 4, antibacterial activity of the invention compound was determined. The bacterium used for the test was Pasteurella Kobe-6 (origin: pig; Pasteurella multocida).

[7] = system: Staphylococcus aureus 209-P; experiment: Antibacterial activity (IC), Mueller-Hinton broth, 96-well microplate (Example 4, Table 39); details: 37°C, 18 hours
Experimental: as §5, §2

[8] = system: Staphylococcus aureus (209-P); experiment: Antibacterial activity (IC), agar as in Example 8 (Example 15, Table 48); details: 18 h
In short: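 Agar dilution with Mueller-Hinton agar containing sample at final 100, 10 and 1 µg/ml, inoculated to 10^6 CFU/ml. Incubated at 37°C for 18 h, growth inhibition judged by medium turbidity. IC bands at successive 2-fold dilution: 100-10, 10-1, or ≤1 µg/ml.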

[9] = system: methicillin-resistant Staphylococcus aureus (MRSA) from humans; experiment: Antibacterial activity (IC), agar as in Example 8 (Example 19, Table 52); details: 18 h
Experimental: as §2, §3, §4
In a manner similar to that described in Example 8, antibacterial activity of a variety of ketonitrile derivatives shown in Table 52 was measured. The bacterium used for the test was methicillin-resistant Staphylococcus aureus (MRSA) from humans.

[10] = system: Pasteurella multocida (Kobe-6); experiment: Antibacterial activity (IC), agar as in Example 8 (Example 17, Table 50); details: 18 h, origin pig
In short: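 Agar dilution on Mueller-Hinton agar with compound at 100, 10 and 1 µg/ml, inoculated at 10^6 CFU/ml with pig-origin strain Kobe-6. After 18 h at 37 °C, IC scored from turbidity and reported as a band (≤100, ≤10, ≤1 µg/ml).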

[11] = system: Streptococcus aureus (TI-1); experiment: Antibacterial activity (IC), agar as in Example 8 (Example 16, Table 49); details: 18 h
In short: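 Broth-grown […] aureus (TI-1) inoculated onto Mueller-Hinton agar containing compound, per the MRSA method; DMSO/water dilutions at final 100, 10 and 1 µg/ml, 10^6 CFU/ml inoculum. After 18 h at 37°C, growth inhibition judged by turbidity; IC reported as bands (100-10, 10-1, ≤1 µg/ml).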

[12] = system: Bordetella bronchiseptica (SM2-4); experiment: Antibacterial activity (IC), agar as in Example 8 (Example 18, Table 51); details: 18 h
Experimental: as §2, §3, §4
(§6) In a manner similar to that described in Example 8, antibacterial activity of the invention compound was determined. The bacterium used for the test was Bordetella bronchiseptica (S1) and Bordetella bronchiseptica (SM2-4).

[13] = system: Bordetella bronchiseptica (S1); experiment: as above; details: 18 h
Experimental: as §2, §3, §4, §6

[14] = Enterococcus Seriolicida KG86050
[15] = Enterococcus Seriolicida MS89060
[16] = Enterococcus Seriolicida MS89064
[17] = Enterococcus Seriolicida MS89066
[18] = Enterococcus Seriolicida MS89068
[19] = Enterococcus Seriolicida SE94-001
[20] = Enterococcus Seriolicida SE94-002
[21] = Enterococcus Seriolicida SE94-003
[22] = Enterococcus Seriolicida SE94-004
[23] = Enterococcus Seriolicida SE94-005

“4-[2-(2-chloro-4-trifluoromethylphenoxy)-4-methylphenoxy]-2-(3,4-dichlorophenyl)-3-oxopentanonitrile and 4-[2-(2-chloro-4-trifluoromethylphenoxy)-5-methylphenoxy]-2-(3,4-dichlorophenyl)-3-oxopentanonitrile [Compound No. 308]” was tested, and the IC ([1]; Pasteurella piscicida KP94-02) was “≤”, the IC ([1]; Pasteurella piscicida KP94-04) was “≤” and the IC ([1]; Pasteurella piscicida KP94-05) was “≤”. For the same compound, the IC ([1]; Pasteurella piscicida KP94-06) was “≤”, the IC ([2]; Enterococcus Seriolicida HI) was at most 1 µg/mL and the IC [2, 14] was at most 1 µg/mL. It also gave an IC [2, 15] of at most 1 µg/mL, an IC [2, 16] of at most 1 µg/mL and an IC [2, 17] of at most 1 µg/mL. The IC [2, 18] was at most 1 µg/mL, the IC [2, 19] was at most 1 µg/mL and the IC [2, 20] was at most 1 µg/mL. It also gave an IC [2, 21] of at most 1 µg/mL, an IC [2, 22] of at most 1 µg/mL and an IC [2, 23] of at most 1 µg/mL. The IC ([3]; MRSA strain 891179, 37°C) was at most 1 µg/mL, the IC ([3]; MRSA strain 891185, 37°C) was at most 1 µg/mL and the IC ([3]; MRSA strain 891187, 37°C) was at most 1 µg/mL. It also gave an IC ([3]; MRSA strain 891192, 37°C) of at most 1 µg/mL, an IC ([3]; MRSA strain 900048, 37°C) of at most 1 µg/mL and an IC ([3]; MRSA strain 900056, 37°C) of at most 1 µg/mL. For the same compound, the IC [4] was 308 (≤100) (MIC-equivalent values obtained at the succesive 2-fold dilution of the sample are 100-10 µg/ml), the IC [5] was 308 (≤1) (not more than 1 µg/ml) and the IC [6] was 308 (≤10) (10-1 µg/ml). The IC [7] was 308 (≤1) (not more than 1 µg/ml).

Compound Cc1cc(Oc2ccc(C(F)(F)F)cc2Cl)ccc1OC(C)C(=O)C(C#N)c1ccc(Cl)c(Cl)c1 (centres unmarked) [compound 46] has an MIC ([3]; MRSA strain 891179, 37°C) of 1 to 10 µg/mL (≈ 1.84 to 18.4 µM), an MIC ([3]; MRSA strain 891185, 37°C) of 1 to 10 µg/mL (≈ 1.84 to 18.4 µM) and an MIC ([3]; MRSA strain 891187, 37°C) of at most 1 µg/mL. For the same compound, the MIC ([3]; MRSA strain 891192, 37°C) was 1 to 10 µg/mL (≈ 1.84 to 18.4 µM), the MIC ([3]; MRSA strain 900048, 37°C) was at most 1 µg/mL and the MIC ([3]; MRSA strain 900056, 37°C) was at most 1 µg/mL. For the same compound, the MIC [4] was 10 to 100 µg/mL (≈ 18.4 to 184 µM), the MIC [5] was at most 1 µg/mL and the MIC [6] was 10 to 100 µg/mL (≈ 18.4 to 184 µM). For the same compound, the MIC [7] was 1 to 10 µg/mL (≈ 1.84 to 18.4 µM).

With Cc1cc(Oc2ccc(C(F)(F)F)cc2Cl)ccc1OC(C)C(=O)C(C#N)c1cccc(Br)c1 (centres unmarked) [compound 47] the MIC ([3]; MRSA strain 891179, 37°C) was 1 to 10 µg/mL (≈ 1.81 to 18.1 µM), the MIC ([3]; MRSA strain 891185, 37°C) was 1 to 10 µg/mL (≈ 1.81 to 18.1 µM) and the MIC ([3]; MRSA strain 891187, 37°C) was 1 to 10 µg/mL (≈ 1.81 to 18.1 µM). For the same compound, the MIC ([3]; MRSA strain 891192, 37°C) was 1 to 10 µg/mL (≈ 1.81 to 18.1 µM), the MIC ([3]; MRSA strain 900048, 37°C) was 1 to 10 µg/mL (≈ 1.81 to 18.1 µM) and the MIC ([3]; MRSA strain 900056, 37°C) was 1 to 10 µg/mL (≈ 1.81 to 18.1 µM). It also gave an MIC [4] of 10 to 100 µg/mL (≈ 18.1 to 181 µM), an MIC [5] of at most 1 µg/mL and an MIC [6] of 10 to 100 µg/mL (≈ 18.1 to 181 µM). It also gave an MIC [7] of 1 to 10 µg/mL (≈ 1.81 to 18.1 µM).

With CC(Oc1ccc(Oc2ncc(C(F)(F)F)cc2Cl)cc1)C(=O)C(C#N)c1cccc2ccccc12 (centres unmarked) [compound 14] the MIC [4] was 10 to 100 µg/mL (≈ 19.6 to 196 µM), the MIC [5] was 10 to 100 µg/mL (≈ 19.6 to 196 µM) and the MIC [7] was 10 to 100 µg/mL (≈ 19.6 to 196 µM).

For CC(Oc1cc(Cl)cc(Oc2ccc(C(F)(F)F)cc2Cl)c1)C(=O)C(C#N)c1ccc(Cl)c(Cl)c1 (centres unmarked) [compound 212], the MIC ([1]; Pasteurella piscicida KP94-02) was 1 to 10 µg/mL (≈ 1.78 to 17.8 µM), the IC ([1]; Pasteurella piscicida KP94-04) was ≤10 (10-1 µg/ml) and the IC ([1]; Pasteurella piscicida KP94-05) was ≤10 (10-1 µg/ml). The IC ([1]; Pasteurella piscicida KP94-06) was ≤10 (10-1 µg/ml), the IC ([2]; Enterococcus Seriolicida HI) was at most 1 µg/mL and the IC [2, 14] was at most 1 µg/mL. It also gave an IC [2, 15] of at most 1 µg/mL, an IC [2, 16] of at most 1 µg/mL and an IC [2, 17] of at most 1 µg/mL. The IC [2, 18] was at most 1 µg/mL, the IC [2, 19] was at most 1 µg/mL and the MIC [2, 20] was at most 1 µg/mL. It also gave an IC [2, 21] of at most 1 µg/mL, an IC [2, 22] of at most 1 µg/mL and an IC [2, 23] of at most 1 µg/mL. The MIC [8] was at most 1 µg/mL, the MIC ([9]; MRSA strain 891179) was at most 1 µg/mL and the MIC ([9]; MRSA strain 891185) was at most 1 µg/mL. It also gave an MIC ([9]; MRSA strain 891187) of at most 1 µg/mL, an MIC ([9]; MRSA strain 891192) of at most 1 µg/mL and an MIC ([9]; MRSA strain 900048) of at most 1 µg/mL. For the same compound, the MIC ([9]; MRSA strain 900056) was at most 1 µg/mL, the MIC [10] was 1 to 10 µg/mL (≈ 1.78 to 17.8 µM) and the MIC [11] was at most 1 µg/mL. The MIC [12] was 10 to 100 µg/mL (≈ 17.8 to 178 µM) and the MIC [13] was 10 to 100 µg/mL (≈ 17.8 to 178 µM).
